Five molecules from US9447136B2, “Semisynthetic derivatives of Nystatin A1” (BLIRT S.A., priority 2012, dated 2016) can be followed below.

Common to all, as to assay: Antifungal activity in vitro, serial dilution in RPMI 1640
Holding throughout (type): cell-based

The test system of test [1] is Saccharomyces cerevisiae ATCC 9763. Particulars: Table 2A; RPMI 1640, pH 7.0; A531 at most 20% of control. On the procedure: (§1) For the determination of antifungal activity in vitro we used method of serial dilution in buffered medium RPMI 1640, pH 7.0, in a 96-wells microplates, according to the standard procedure (National Committee for Clinical Laboratory Standards. Reference method for broth dilution antifungal susceptibility testing of yeast, approved standard, 2nd ed. M27-A2 vol. 22 Wayne, Pa., 2002). The optical density of cells suspension was measured using a microplates reader (Victor^3, Perkin-Elmer) at the wavelength λ=531 nm (A531). On the basis of obtained results the diagrams of relation between A531 values and concentration of examined compound were made. From these graphs, the IC50 values were read, which were the interpolated concentrations of a tested compound, at which the A531 value was exactly 50% of the A531 value for the control sample. Moreover, MIC values, that are the lowest concentration of tested compound at which the A531 value were at most 20% of the A531 value measured for the control sample.

The subject of test [2] is Candida albicans ATCC 10231. The following applies: Table 2A, RPMI 1640, pH 7.0; for Antifungal activity Candida albicans ATCC 10231 IC50: A531 50% of control; for Antifungal activity Candida albicans ATCC 10231 MIC: A531 at most 20% of control. As for the experimental part: as §1
For test [3], the system named is Candida tropicalis KKP 334. The following applies: Table 2A; RPMI 1640, pH 7.0. On the procedure: as §1
For test [4], the system named is Candida krusei DSM 6128. The following applies: Table 2A; RPMI 1640, pH 7.0. On the procedure: as §1
Test [5] deals with Candida glabrata DSM 11226. Particulars: Table 2A; RPMI 1640, pH 7.0. On the procedure: as §1
Test [6] deals with Candida lusitaniae DSM 70102. The following applies: Table 2A; RPMI 1640, pH 7.0. On the procedure: as §1

Consider “N—[N′-2-(pyrrolidin-1-yl)ethylsuccinimidyl]nystatin A1 [Compound N11]”, for which the “Antifungal activity Saccharomyces cerevisiae ATCC 9763 MIC” value in test [1] amounted to 8 mg/L. In addition, in test [2], the “Antifungal activity Candida albicans ATCC 10231 IC50” value stood at 3.91 mg/L and the “Antifungal activity Candida albicans ATCC 10231 MIC” value worked out at 8 mg/L. For the same molecule, the “Antifungal activity Candida tropicalis KKP 334 MIC” value in test [3] turned out to be 8 mg/L. For the same molecule, the “Antifungal activity Candida krusei DSM 6128 MIC” value in test [4] worked out at 8 mg/L. For the same molecule, in test [5], the “Antifungal activity Candida glabrata DSM 11226 MIC” value amounted to 8 mg/L. For the same molecule, the “Antifungal activity Candida lusitaniae DSM 70102 MIC” value in test [6] worked out at 4 mg/L.

As for `CC1OC(O[C@H]2/C=C/C=C/C=C/C=C/CC/C=C/C=C/[C@H](C)[C@@H](O)[C@@H](C)[C@H](C)OC(=O)C[C@H](O)C[C@H](O)C[C@H](O)CC[C@@H](O)[C@H](O)CC3(O)C[C@H](O)[C@@H](C(=O)O)[C@H](C2)O3)C(O)C(NC2CC(=O)N(CCN(C)C)C2=O)C1O` (some centres unmarked) [Compound N7, N—[N′-2-(N″,N″-dimethylamino)ethylsuccinimidyl]nystatin A1], in test [1], the “Antifungal activity Saccharomyces cerevisiae ATCC 9763 MIC” value is 8 mg/L. In addition, in test [2], the “Antifungal activity Candida albicans ATCC 10231 IC50” value was 3.99 mg/L and the “Antifungal activity Candida albicans ATCC 10231 MIC” value was found to be 8 mg/L. Also, in test [3], the “Antifungal activity Candida tropicalis KKP 334 MIC” value came out at 8 mg/L. Also, the “Antifungal activity Candida krusei DSM 6128 MIC” value in test [4] was 16 mg/L. Besides, the “Antifungal activity Candida glabrata DSM 11226 MIC” value in test [5] was determined as 8 mg/L. Further, the “Antifungal activity Candida lusitaniae DSM 70102 MIC” value in test [6] was found to be 4 mg/L.

Consider N,N-diethylnystatin A1 [Compound N24], for which the “Antifungal activity Saccharomyces cerevisiae ATCC 9763 MIC” value in test [1] stood at 8 mg/L. In addition, in test [2], the “Antifungal activity Candida albicans ATCC 10231 IC50” value stood at 3.82 mg/L and the “Antifungal activity Candida albicans ATCC 10231 MIC” value is 8 mg/L. In addition, the “Antifungal activity Candida tropicalis KKP 334 MIC” value in test [3] was found to be 8 mg/L. Also, the “Antifungal activity Candida krusei DSM 6128 MIC” value in test [4] was 16 mg/L. In test [5], the “Antifungal activity Candida glabrata DSM 11226 MIC” value was determined as 16 mg/L. In addition, in test [6], the “Antifungal activity Candida lusitaniae DSM 70102 MIC” value came to 4 mg/L.

“N-{3-[2-(piperidin-1-yl)ethyl]thioureidyl}nystatin A1 [Compound N12]”: the “Antifungal activity Saccharomyces cerevisiae ATCC 9763 MIC” value in test [1] amounted to 8 mg/L. In test [2], the “Antifungal activity Candida albicans ATCC 10231 IC50” value was 4.20 mg/L and the “Antifungal activity Candida albicans ATCC 10231 MIC” value is 8 mg/L. Also, the “Antifungal activity Candida tropicalis KKP 334 MIC” value in test [3] was determined as 8 mg/L. In test [4], the “Antifungal activity Candida krusei DSM 6128 MIC” value worked out at 16 mg/L. In addition, the “Antifungal activity Candida glabrata DSM 11226 MIC” value in test [5] amounted to 8 mg/L. The “Antifungal activity Candida lusitaniae DSM 70102 MIC” value in test [6] worked out at 4 mg/L.

On to `CC1OC(O[C@H]2/C=C/C=C/C=C/C=C/CC/C=C/C=C/[C@H](C)[C@@H](O)[C@@H](C)[C@H](C)OC(=O)C[C@H](O)C[C@H](O)C[C@H](O)CC[C@@H](O)[C@H](O)CC3(O)C[C@H](O)[C@@H](C(=O)O)[C@H](C2)O3)C(O)C(NC2CC(=O)N(CC(C)(C)CN(C)C)C2=O)C1O` (some centres unmarked) [Compound N10, N—[N′-3-(N″,N″-dimethylamino)-2,2-dimethylpropylsuccinimidyl]nystatin A1], for which the “Antifungal activity Saccharomyces cerevisiae ATCC 9763 MIC” value in test [1] was determined as 8 mg/L. Also, in test [2], the “Antifungal activity Candida albicans ATCC 10231 IC50” value was 5.47 mg/L and the “Antifungal activity Candida albicans ATCC 10231 MIC” value came out at 8 mg/L. Moreover, in test [3], the “Antifungal activity Candida tropicalis KKP 334 MIC” value amounted to 8 mg/L. The “Antifungal activity Candida krusei DSM 6128 MIC” value in test [4] stood at 16 mg/L. Besides, in test [5], the “Antifungal activity Candida glabrata DSM 11226 MIC” value stood at 16 mg/L. The “Antifungal activity Candida lusitaniae DSM 70102 MIC” value in test [6] worked out at 4 mg/L.
